{"source": "patent US12268782B2", "about": "“Preparation method of fatty acid liposome for VC encapsulation” (Jiangnan University, priority 2020, dated 2025)", "test": "Degradation of VC in deionized water over time at different temperatures (FIG. 1)", "type": "physicochemical", "text": "Vitamin C (VC), also known as L-ascorbic acid, is a main component of common food additives and cosmetics, and can serve as a vitamin supplement and an antioxidant in cosmetics. However, VC is very unstable in neutral or alkaline aqueous solutions."}
{"smiles": "O=C1O[C@H]([C@@H](O)CO)C(O)=C1O", "note": "[VC, L-ascorbic acid]", "values": [{"measurement": "degradation rate of VC", "setting": "deionized water, 6 h, temperature higher than 50° C.", "value": 80, "unit": "%"}, {"measurement": "VC degrades (degradation)", "setting": "initial concentration 0.27 mg/mL in deionized water, 25° C., after 12 h", "value": 29, "unit": "%"}]}
